Experimental data published in patent publication US8536168B2 (Novartis AG, priority 2007, dated 2013).
Like-named read-outs stand apart in the source and are kept apart here.

How the values were obtained:
Gli-luciferase activity = experiment: Reporter gene assay (RGA) in TMHh12 cells, antagonism of Gli-luciferase activity in the presence of a Smo agonist; type: cell-based
Experimental: Activity of the compounds was evaluated using a reporter gene assay (RGA) in TMHh12 cells.

[1] = molecular target: mouse Smoothened receptor (Mus musculus, UniProt P56726); experiment: Smo binding assay, displacement of radio-labeled smoothened agonist, filter binding format (mouse); settings: displacement of small molecule agonist of Smoothened, read-out: Mouse Smo bdg., IC50
Text: A Smo binding assay was developed using radio-labeled smoothened agonist for compound competition.

[2] = molecular target: human Smoothened receptor (Homo sapiens, UniProt Q99835); experiment: Smo binding assay, displacement of radio-labeled smoothened agonist, filter binding format (human); settings: displacement of small molecule agonist of Smoothened, read-out: Human Smo bdg., IC50
Text: A Smo binding assay was developed using radio-labeled smoothened agonist for compound competition. Table 9 lists the IC50 for displacement of a small molecule agonist of Smoothened determined in a filter binding format for the mouse and human Smoothened receptor.

[3] = 25 nM small molecule Smo agonist, read-out: RGA (25 nM Smo agonist) IC50
[4] = read-out: RGA (1 nM Smo agonist) IC50, 1 nM small molecule Smo agonist

Sequence of human Smoothened receptor (Q99835 28-787): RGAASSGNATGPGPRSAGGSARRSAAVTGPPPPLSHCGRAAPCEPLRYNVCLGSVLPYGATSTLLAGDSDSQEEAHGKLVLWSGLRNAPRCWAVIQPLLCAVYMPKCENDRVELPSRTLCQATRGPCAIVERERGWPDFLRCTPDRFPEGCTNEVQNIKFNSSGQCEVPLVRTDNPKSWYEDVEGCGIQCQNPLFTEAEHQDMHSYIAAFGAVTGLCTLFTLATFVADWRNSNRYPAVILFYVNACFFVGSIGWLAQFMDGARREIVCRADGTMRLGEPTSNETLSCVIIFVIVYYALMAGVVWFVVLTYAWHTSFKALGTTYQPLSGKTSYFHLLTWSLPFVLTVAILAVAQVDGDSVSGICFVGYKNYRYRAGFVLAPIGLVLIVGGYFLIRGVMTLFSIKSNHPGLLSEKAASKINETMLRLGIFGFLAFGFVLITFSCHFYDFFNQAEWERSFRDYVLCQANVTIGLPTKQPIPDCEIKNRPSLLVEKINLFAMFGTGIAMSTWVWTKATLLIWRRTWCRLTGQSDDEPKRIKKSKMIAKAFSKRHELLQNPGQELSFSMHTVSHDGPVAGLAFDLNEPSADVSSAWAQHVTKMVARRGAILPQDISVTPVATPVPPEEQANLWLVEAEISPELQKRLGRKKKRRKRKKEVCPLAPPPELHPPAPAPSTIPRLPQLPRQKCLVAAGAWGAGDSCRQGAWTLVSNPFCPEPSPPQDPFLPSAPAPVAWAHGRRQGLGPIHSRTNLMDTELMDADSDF
Sequence of mouse Smoothened receptor (P56726 33-793): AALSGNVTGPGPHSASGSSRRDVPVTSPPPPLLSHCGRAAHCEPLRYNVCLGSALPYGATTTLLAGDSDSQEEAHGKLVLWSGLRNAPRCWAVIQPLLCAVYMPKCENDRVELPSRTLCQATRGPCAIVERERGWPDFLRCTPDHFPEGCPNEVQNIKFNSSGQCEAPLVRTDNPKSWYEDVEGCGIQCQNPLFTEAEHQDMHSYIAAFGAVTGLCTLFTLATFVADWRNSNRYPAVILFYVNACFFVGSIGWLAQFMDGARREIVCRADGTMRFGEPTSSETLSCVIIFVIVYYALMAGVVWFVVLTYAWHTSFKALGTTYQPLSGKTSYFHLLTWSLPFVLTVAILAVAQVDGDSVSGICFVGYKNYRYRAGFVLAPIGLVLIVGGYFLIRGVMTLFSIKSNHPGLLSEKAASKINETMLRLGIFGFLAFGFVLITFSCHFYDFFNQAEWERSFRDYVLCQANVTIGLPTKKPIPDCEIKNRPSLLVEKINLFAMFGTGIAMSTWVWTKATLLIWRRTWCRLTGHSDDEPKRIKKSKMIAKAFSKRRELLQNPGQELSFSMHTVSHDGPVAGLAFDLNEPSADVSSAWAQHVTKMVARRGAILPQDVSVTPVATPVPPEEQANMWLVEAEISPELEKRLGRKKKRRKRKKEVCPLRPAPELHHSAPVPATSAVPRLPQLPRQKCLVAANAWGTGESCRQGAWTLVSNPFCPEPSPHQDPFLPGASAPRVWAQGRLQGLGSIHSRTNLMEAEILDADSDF

Row | Compound | IC50 (Gli-luciferase activity; [3]) | IC50 (Gli-luciferase activity; [4]) | IC50 [1] | IC50 [2]
1 | CN(Cc1ccc(N2CCN(c3nnc(Cc4ccccc4)c4ccccc34)CC2)nc1)C1CCOCC1 [Example 226] | 100 to 1000 nM | < 100 nM | < 100 nM | 100 to 1000 nM
2 | c1ccc(Cc2nnc(N3CCN(c4ccc(CNC5CCOCC5)cn4)CC3)c3ccccc23)cc1 [Example 225] | 100 to 1000 nM | < 100 nM | 100 to 1000 nM | 100 to 1000 nM
3 | Cc1c(N2CCN(c3ccc(C(F)(F)F)cn3)CC2)nnc(Cc2ccccc2)c1CNCc1ccccc1 [Example 242, N-benzyl-1-(3-benzyl-5-methyl-6-(4-(5-(trifluoromethyl)pyridin-2-yl)piperazin-1-yl)pyridazin-4-yl)methanamine] | 1000 to 10000 nM | 1000 to 10000 nM | 1000 to 10000 nM | 1000 to 10000 nM
4 | C[C@@H]1CN(c2nnc(Cc3ccccc3)c3ccccc23)CCN1c1cnc(C(C)(C)O)cn1 [Example 156] | < 100 nM | < 100 nM | < 100 nM | < 100 nM
5 | OC1(c2ccc(N3CCN(c4nnc(Cc5ccccc5)c5ccccc45)CC3)nc2)CC1 [Example 135] | 100 to 1000 nM | < 100 nM | < 100 nM | < 100 nM
6 | CN(C)C(=O)OCc1ccc(N2CCN(c3nnc(Cc4ccccc4)c4ccccc34)CC2)nc1 [Example 160, Dimethyl-carbamic acid 6-[4-(4-benzyl-phthalazin-1-yl)-piperazin-1-yl]-pyridin-3-ylmethyl ester] | 100 to 1000 nM | < 100 nM | 100 to 1000 nM | 100 to 1000 nM
7 | CC(C)CC(=O)NCc1ccc(N2CCN(c3nnc(Cc4ccccc4)c4ccccc34)CC2)cc1 [Example 78c] | < 100 nM | < 100 nM | < 100 nM | < 100 nM
8 | CCOC(=O)c1ccc(N2CCN(c3nnc(CN4CCOCC4)c4ccccc34)CC2)nc1 [Example 203, 6-[4-(4-Morpholin-4-ylmethyl-phthalazin-1-yl)-piperazin-1-yl]-nicotinic acid ethyl ester] | 1000 to 10000 nM | 100 to 1000 nM | 100 to 1000 nM | 100 to 1000 nM
9 | Cc1nc(N2CCN(c3nnc(Cc4ccccc4)c4ccccc34)CC2)ccc1C#N [Example 130] | 1000 to 10000 nM | 100 to 1000 nM | 1000 to 10000 nM | 1000 to 10000 nM
10 | COC(=O)CNC(=O)c1ccc(N2CCN(c3nnc(Cc4ccccc4)c4ccccc34)CC2)nc1 [Example 54r] | 100 to 1000 nM | 100 to 1000 nM | < 100 nM | 100 to 1000 nM
11 | N#Cc1cccc(C(=O)N2CCC(c3cn(Cc4ccc(F)cc4)c4ccccc34)CC2)c1 [Example 94, 3-{4-[1-(4-Fluoro-benzyl)-1H-indol-3-yl]-piperidine-1-carbonyl}-benzonitrile] | 1000 to 10000 nM | 100 to 1000 nM | 100 to 1000 nM | 100 to 1000 nM
12 | Cc1cc(N2CCN(c3ccc(C(F)(F)F)cn3)CC2)nnc1Cc1ccccc1 [Example 89] |  | 100 to 1000 nM | < 100 nM | < 100 nM
13 | CC(C)(C)OC(=O)NC1CN(C(=O)c2ccc(N3CCN(c4nnc(Cc5ccccc5)c5ccccc45)CC3)nc2)C1 [Example 54v] | 1000 to 10000 nM | 100 to 1000 nM | 100 to 1000 nM | 100 to 1000 nM
14 | N#Cc1ccc(N2CCN(c3nnc(CCc4ccccc4)c4ccccc34)CC2)nc1 [Example 61] | 1000 to 10000 nM | 100 to 1000 nM | < 100 nM | 100 to 1000 nM
15 | FC1CCN(Cc2ccc(N3CCN(c4nnc(Cc5ccccc5)c5ccccc45)CC3)nc2)CC1 [Example 227] | 100 to 1000 nM | < 100 nM | < 100 nM | 100 to 1000 nM
16 | CC(=O)NC(C)(C)c1ccc(N2CCN(c3nnc(Cc4ccccc4)c4ccccc34)CC2)nc1 [Example 162, N-(1-{6-[4-(4-Benzyl-phthalazin-1-yl)-piperazin-1-yl]-pyridin-3-yl}-1-methyl-ethyl)-acetamide] | < 100 nM | < 100 nM | < 100 nM | < 100 nM
17 | CC(=O)c1ccc(N2CCN(c3nnc(Cc4ccccc4)c4ccccc34)CC2)nc1 [Example 134] | < 100 nM | < 100 nM | < 100 nM | < 100 nM

Row | Compound | IC50 (Gli-luciferase activity; [3]) | IC50 (Gli-luciferase activity; [4]) | IC50 [1] | IC50 [2]
18 | COc1ccc(Cc2nnc(N3CCN(c4ccc(C#N)cn4)CC3)c3ccccc23)cc1OC [Example 58] |  | 1000 to 10000 nM | 1000 to 10000 nM | 1000 to 10000 nM
19 | CCOC(=O)c1ccc(N2CCN(c3nnc(Cc4cccc(F)c4)c4ccccc34)CC2)nc1 [Example 185] | 1000 to 10000 nM | 100 to 1000 nM | < 100 nM | < 100 nM
20 | CC(=O)NCc1ccc(N2CCN(c3nnc(Cc4ccccc4)c4ccccc34)[C@@H](C)C2)nc1 [Example 216] | < 100 nM | < 100 nM | < 100 nM | < 100 nM
21 | FC(F)(F)c1ccc(N2CCN(c3nnc(Cc4ccccc4)c4ccccc34)CC2)nc1 [Example 2] | 100 to 1000 nM | < 100 nM | < 100 nM | < 100 nM
22 | COC(=O)c1cnc(N2CCN(c3nnc(Cc4ccccc4)c4ccccc34)CC2)cc1C(F)(F)F [Example 136] | 100 to 1000 nM | < 100 nM | < 100 nM | < 100 nM
23 | FC(F)(F)c1ccc(N2CCC(c3cn(Cc4ccc(Br)cc4)c4ccccc34)CC2)nc1 [Example 99] | 1000 to 10000 nM | 100 to 1000 nM | 100 to 1000 nM | 100 to 1000 nM
24 | N#Cc1ccc(N2CCC(c3cn(Cc4ccc(F)cc4)c4ccccc34)CC2)nc1 [Example 98] | 1000 to 10000 nM | 100 to 1000 nM | 1000 to 10000 nM | 1000 to 10000 nM
25 | N#Cc1ccc(N2CCN(c3cnc(Cc4cccc(C(F)(F)F)c4)c4ccccc34)CC2)nc1 [Example 82] | 10000 to 40000 nM | 1000 to 10000 nM | 1000 to 10000 nM | 1000 to 10000 nM
26 | CCOC(=O)c1ccc(N2CCN(c3nnc(Cc4ccc(F)cc4F)c4ccccc34)[C@@H](C)C2)nc1 [Example 187] | 100 to 1000 nM | < 100 nM | < 100 nM | < 100 nM
27 | CN(CCO)C(=O)c1cnc(N2CCN(c3nnc(Cc4ccccc4)c4ccccc34)CC2)nc1 [Example 54cc] | 100 to 1000 nM | < 100 nM | 100 to 1000 nM | 100 to 1000 nM
28 | N#Cc1ccc(C(=O)N2CCC(c3cn(Cc4ccc(F)cc4)c4ccccc34)CC2)cc1 [Example 102] |  | 100 to 1000 nM | 100 to 1000 nM | 100 to 1000 nM
29 | Cc1cc(Cc2ccc(Cl)cc2)nnc1N1CCN(c2ccc(C#N)cn2)CC1 [Example 92] | 1000 to 10000 nM | 100 to 1000 nM | 100 to 1000 nM | 100 to 1000 nM
30 | OC1(c2ccc(N3CCN(c4nnc(Cc5ccccc5)c5ccccc45)CC3)nc2)COC1 [Example 111] | 100 to 1000 nM | < 100 nM | < 100 nM | 100 to 1000 nM
31 | N#Cc1ccc(C2CCN(c3nnc(Cc4ccccc4)c4ccccc34)CC2)cc1 [Example 116] | 1000 to 10000 nM | 1000 to 10000 nM | 1000 to 10000 nM | 1000 to 10000 nM
32 | COC(C)(C)c1ccc(N2CCN(c3nnc(Cc4ccccc4)c4ccccc34)CC2)nc1 [Example 161, 1-Benzyl-4-{-4-[5-(1-methoxy-1-methyl-ethyl)-pyridin-2-yl]-piperazin-1-yl}-phthalazine] | < 100 nM | < 100 nM | < 100 nM | < 100 nM
33 | N#Cc1ccc(N2CCN(c3nnc(Cc4ccccc4Cl)c4ccccc34)CC2)nc1 [Example 174] | 1000 to 10000 nM | < 100 nM | 100 to 1000 nM | 100 to 1000 nM
34 | CN(C)CC(C)(O)c1cnc(N2CCN(c3nnc(Cc4ccccc4)c4ccccc34)CC2)cn1 (stereo not shown) [Example 169, 2-[4-(4-Benzyl-phthalazin-1-yl)-3,4,5,6-tetrahydro-2H-[1,2′]bipyrazinyl-5′-yl]-1-dimethylamino-propan-2-ol] | 100 to 1000 nM | < 100 nM | < 100 nM | < 100 nM
